In assay [1] the target is T1, E3 ubiquitin-protein ligase TRIM33 (Homo sapiens, UniProt Q9UPN9).
T1 sequence (Q9UPN9 whole entry): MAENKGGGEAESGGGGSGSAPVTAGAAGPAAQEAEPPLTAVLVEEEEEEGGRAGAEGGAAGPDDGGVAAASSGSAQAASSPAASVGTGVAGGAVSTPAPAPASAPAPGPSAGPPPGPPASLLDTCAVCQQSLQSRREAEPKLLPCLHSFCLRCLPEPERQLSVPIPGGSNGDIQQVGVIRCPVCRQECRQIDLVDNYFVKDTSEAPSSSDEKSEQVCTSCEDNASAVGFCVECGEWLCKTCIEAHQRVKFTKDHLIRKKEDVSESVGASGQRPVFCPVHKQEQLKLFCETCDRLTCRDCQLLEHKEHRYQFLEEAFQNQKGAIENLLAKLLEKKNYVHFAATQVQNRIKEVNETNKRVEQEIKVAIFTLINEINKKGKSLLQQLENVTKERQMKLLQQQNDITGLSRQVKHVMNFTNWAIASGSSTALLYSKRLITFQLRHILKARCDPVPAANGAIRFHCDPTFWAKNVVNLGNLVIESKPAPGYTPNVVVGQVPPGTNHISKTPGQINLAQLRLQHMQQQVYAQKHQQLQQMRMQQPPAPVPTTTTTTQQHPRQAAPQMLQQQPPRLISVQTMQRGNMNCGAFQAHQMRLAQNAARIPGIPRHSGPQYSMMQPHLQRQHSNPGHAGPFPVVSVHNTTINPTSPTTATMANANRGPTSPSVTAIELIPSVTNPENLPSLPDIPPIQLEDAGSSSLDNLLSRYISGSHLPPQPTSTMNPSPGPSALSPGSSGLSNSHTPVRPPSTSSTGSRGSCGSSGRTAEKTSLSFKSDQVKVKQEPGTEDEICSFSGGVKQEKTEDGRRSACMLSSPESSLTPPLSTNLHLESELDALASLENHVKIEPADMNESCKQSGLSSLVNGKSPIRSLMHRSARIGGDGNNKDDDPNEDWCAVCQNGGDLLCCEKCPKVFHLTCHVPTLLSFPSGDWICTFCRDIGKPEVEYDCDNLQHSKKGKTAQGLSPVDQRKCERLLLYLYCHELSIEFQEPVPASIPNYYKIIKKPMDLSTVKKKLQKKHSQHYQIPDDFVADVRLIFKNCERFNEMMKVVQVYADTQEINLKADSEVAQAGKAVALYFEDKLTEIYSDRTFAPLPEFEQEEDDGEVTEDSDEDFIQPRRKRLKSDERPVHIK
The assay is described as follows: Inhibition of recombinant TRIM33 PHD bromodomain (unknown origin) using biotinylated H3 peptide (H3K9me3K18ac) by AlphaScreen assay. (In general: Bead proximity is the source of the signal in Alpha formats.)

Assay [2] addresses T2, Transcription intermediary factor 1-alpha (Homo sapiens, UniProt O15164).
T2 sequence (O15164 whole entry): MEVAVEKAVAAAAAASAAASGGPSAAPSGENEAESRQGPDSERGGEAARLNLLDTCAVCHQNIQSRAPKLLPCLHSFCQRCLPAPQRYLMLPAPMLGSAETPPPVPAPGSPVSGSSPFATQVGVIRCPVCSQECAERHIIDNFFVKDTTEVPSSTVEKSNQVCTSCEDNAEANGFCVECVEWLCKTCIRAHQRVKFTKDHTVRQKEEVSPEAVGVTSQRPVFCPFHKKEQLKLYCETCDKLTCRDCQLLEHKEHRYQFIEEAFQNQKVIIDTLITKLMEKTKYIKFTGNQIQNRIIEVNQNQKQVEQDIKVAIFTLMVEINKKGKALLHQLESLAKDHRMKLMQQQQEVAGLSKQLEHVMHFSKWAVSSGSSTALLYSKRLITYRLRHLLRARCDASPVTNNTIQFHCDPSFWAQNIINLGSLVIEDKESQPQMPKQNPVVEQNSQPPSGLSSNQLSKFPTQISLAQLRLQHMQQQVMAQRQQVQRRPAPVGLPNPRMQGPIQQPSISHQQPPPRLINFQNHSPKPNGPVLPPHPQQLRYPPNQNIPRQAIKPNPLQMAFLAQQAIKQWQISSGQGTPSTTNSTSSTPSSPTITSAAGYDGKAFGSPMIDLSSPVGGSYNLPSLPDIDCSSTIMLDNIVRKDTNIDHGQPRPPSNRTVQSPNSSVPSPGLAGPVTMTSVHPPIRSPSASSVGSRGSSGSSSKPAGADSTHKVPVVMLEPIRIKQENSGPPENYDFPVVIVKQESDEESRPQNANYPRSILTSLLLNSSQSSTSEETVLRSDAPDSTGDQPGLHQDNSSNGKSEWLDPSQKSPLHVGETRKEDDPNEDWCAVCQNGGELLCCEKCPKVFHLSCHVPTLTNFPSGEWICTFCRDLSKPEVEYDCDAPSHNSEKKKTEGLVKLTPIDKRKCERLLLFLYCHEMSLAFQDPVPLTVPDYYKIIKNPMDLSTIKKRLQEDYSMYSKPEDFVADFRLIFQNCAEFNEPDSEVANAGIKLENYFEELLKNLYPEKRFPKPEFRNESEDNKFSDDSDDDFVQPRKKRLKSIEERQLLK
The assay is described as follows: Inhibition of recombinant TRIM24 (unknown origin) using biotinylated H3 peptide (H3K9me3K18ac) by AlphaScreen assay.

The species entered for the next assay is Homo sapiens. The assay is described as follows: Selectivity index, ratio of IC50 for recombinant TRIM24 (unknown origin) to IC50 for recombinant TRIM33 PHD bromodomain (unknown origin).

`Cc1[nH]cnc1-c1nc2ccccn2c1NCc1ccc(C#N)cc1`: the IC50 amounted to 16.4 µM in assay [1] and 42.8 µM in assay [2]. Also, in the assay listed under Homo sapiens, the Ratio IC50 came out at 2.61.

Consider `COc1ccc(CCNc2c(-c3ccc4nccn4c3)nc3ccc(Br)cn23)cc1OC`, for which the half-inhibitory concentration (IC50) is 20.4 µM in assay [1] and 283 µM in assay [2]. Moreover, the Ratio IC50 in the assay filed under Homo sapiens came to 13.9.

Regarding `CCCOc1ccn2c(C(C)=O)cc(-c3nc4ccccn4c3NCCOC)c2c1`, the IC50 in assay [1] was found to be 47.5 µM; in assay [2] it was 445 µM. In the assay filed under Homo sapiens, the Ratio IC50 turned out to be 9.36.

Take `COC(=O)c1ccc2nc(-c3nc[nH]c3C)c(NCc3ccc(C#N)cc3)n2c1`: the results for the IC50 in assay [1] and in assay [2] were 113 µM and 319 µM, respectively. Moreover, the Ratio IC50 in the assay filed under Homo sapiens came to 2.83.

`N#Cc1ccc(CNc2c(-c3ccc4nccn4c3)nc3ccccn23)cc1`: the IC50 was 87.4 µM in assay [1] and 2080 µM in assay [2]. Also, the Ratio IC50 in the assay listed under Homo sapiens came out at 23.8.

Consider `COCCNc1c(-c2c[nH]c(C)n2)nc2ccccn12`, for which the IC50 is 17.2 µM in assay [1] and 141 µM in assay [2]. For the same compound, in the assay listed under Homo sapiens, the Ratio IC50 is 8.16.

`COc1ccc(Nc2c(-c3ccc4nccn4c3)nc3ccccn23)cc1`: the IC50 in assay [1] was found to be 26 µM; in assay [2] it was 153 µM. Besides, in the assay listed under Homo sapiens, the Ratio IC50 came to 5.88.

As for `COCCNc1c(-c2ccc3nccn3c2)nc2ccc(Br)cn12`, the IC50 was 156 µM in assay [1] and 706 µM in assay [2]. Further, the Ratio IC50 in the assay filed under Homo sapiens was 4.53.

A word on the IC50: it is the concentration needed to halve the response being measured.

These data come from ChEMBL document CHEMBL4418499, “Inhibitors of trim33 and methods of use” (2018).
